Patent US20230365625A1, “METHODS FOR TREATING AND/OR PREVENTING UNDESIRABLE SEQULAE OF NASAL TURBINOPLASTY OR FUNCTIONAL ENDOSCOPIC SINUS SURGERY” (3-D Matrix, Ltd., priority 2022, published 2023)
Values joined by “and” are separate entries in the source; they are usually repeats but may differ in a detail not shown here. Equal entries are not always repeated. “Also recorded” adds a separate entry of the source.

Columns and labels:
[1] = test system: nasal mucosal injuries on the middle turbinate and opposing nasal septum; test: Endoscopic grading of synechiae/adhesion formation at day 14 and day 42, sheep model; assay type: in vivo, Merino sheep; parameters: key to Adhesion score day 14 / Adhesion score day 42: 0: No intranasal adhesions/synechiae; 1: Intranasal adhesion extends less than 25% to septum; Intranasal adhesion extends 25-50% to septum; 3: Intranasal adhesion extends more than 50% to septum; 4: Completely formed adhesion/synechiae extending to septum; conditions: for Number of sites, synechiae Grade 0 / Number of sites, synechiae Grade 1 / Number of sites, synechiae Grade 2 / Number of sites, synechiae Grade 3 / Number of sites, synechiae Grade 4: 20 sites per group
Experimental: Post-operative observations—Post recovery from anesthesia, the animals were returned to their pens with ongoing daily monitoring for 14 days, including bloody nasal discharge, temperature, and food and water intake. On each postoperative day, the animals were examined externally by an independent observer, with no involvement in the operation, for the presence of bloody nasal discharges. External blood was cleaned off after each examination followed with irrigation of each nostril using 20 ml of saline solution. Regular irrigation of the nose and sinuses is standard in post-operative care following nasal surgery. The sheep were sedated and examined via endoscope again on day 14 for the presence of adhesions and graded by an independent observer using the grading scheme below for sheep nasal adhesions. Representative endoscopic images for sites (two sites/sides per sheep) treated with PuraSinus (SEQ ID NO:1) are shown in FIG. 1 and untreated control sites are shown in FIG. 2, respectively. The sheep were euthanized at day 42, with a necropsy performed by the same independent observer grading intranasal adhesion formation and extension. […] [table]

[2] = test system: Functional Endoscopic Sinus Surgery (FESS) surgical wound; assay type: in vivo, human
Description: Study design—This study was a retrospective chart review of 94 consecutive human patients who underwent FESS and who were operated on by a single surgeon in a single center in Perth, Western Australia. FIGS. 6A and 6B show a flowchart of patients based on extent of surgery and outcomes. Only patients treated with PuraSinus alone (no other hemostatic agent was used) were included in the analysis. Ethics approval was obtained from St John of Good Health Care Human Research Ethics Committee.
Patient population—The study included adult human patients who underwent FESS procedures and also included patients who underwent FESS in combination with nasal surgery (septoplasty and/or turbinoplasty). Both primary and revision cases were included. Patients were discharged the day after surgery with a recommendation to perform saline nasal irrigations no less than four times a day. Patient characteristics, indication for surgery, extent of surgical intervention, and bleeding and adhesion information was recorded.
Surgical categories—Procedures were performed according to the minimally invasive sinus technique (MIST), including combination of maxillary antrostomy, ethmoidectomies, sphenoidotomies and frontal sinus (Draf Ila, or Draf 111), turbinate reduction and/or septoplasty. FESS procedures were categorized into two groups: complete FESS (including all sinuses—maxillary antrostomy, ethmoidectomy, sphenoidotomy, and frontal sinusotomy) or limited FESS (anything less than complete FESS, usually involves antrostomy and ethmoidectomy). The surgical extent was dictated by the patient's condition and the surgeon's clinical judgement.
Material used—PuraSinus (licensed as PuraStat in Australia, 3D-Matrix)/RADA16-I (SEQ ID NO:1) 2.5% w/v in water is a transparent SAP solution supplied sterile in a pre-filled syringe (available in a 3 mL and 5 mL form) ready for use with a thin application nozzle suited for endoscopic catheter administration. The syringe is stored at between 2° C. and 8° C. At completion of the FESS procedure, PuraSinus was applied to the surgical wound in a thin and even layer as close as possible to the bleeding point. A similar application technique has been outlined previously (M. Lee et al., Int. J. Surg. Case Rep. 41: 461-4 (2017)). […] Tissues treated with the hydrogel were visible via endoscope given the gel's transparency.
Outcomes and objectives—The objectives of this study were to evaluate the effectiveness of PuraSinus in rapidly achieving intraoperative hemostasis and to assess the incidence of delayed bleeding ([…]) and synechiae formation via endoscopic observation of the nasal mucosa at follow-up visits. Primary bleeding was defined as bleeding occurring within 24 hours of surgery.
Data analysis—Statistical analysis was performed using descriptive statistics for continuous variables and patient demographics were reported. The rate of successful hemostasis and incidence of synechiae formation were calculated as a proportion of total patients undergoing FESS.

[3] = 1% in water; cited from earlier work
[4] = RADA16 2.5%, IEIK13 1.3%, QLEL12 0.15% in water; result in words; cited from earlier work
[5] = test system: gastrointestinal endoscopic procedures and cardiovascular surgery; conditions: 2.5% w/v in water, topical hemostat; cited from earlier work

Compound: CC(=O)N[C@@H](CCCNC(=N)N)C(=O)N[C@@H](C)C(=O)N[C@@H](CC(=O)O)C(=O)N[C@@H](C)C(=O)N[C@@H](CCCNC(=N)N)C(=O)N[C@@H](C)C(=O)N[C@@H](CC(=O)O)C(=O)N[C@@H](C)C(=O)N[C@@H](CCCNC(=N)N)C(=O)N[C@@H](C)C(=O)N[C@@H](CC(=O)O)C(=O)N[C@@H](C)C(=O)N[C@@H](CCCNC(=N)N)C(=O)N[C@@H](C)C(=O)N[C@@H](CC(=O)O)C(=O)N[C@@H](C)C(N)=O [PuraSinus, Ac-RADARADARADARADA-NH2]
- Reduction of two-week synechiae score versus Controls ([1]; 2 weeks): 91%
- Reduction of two-week synechiae score versus Gelatin-thrombin treatment ([1]; 2 weeks): 92%
- Reduction of six-week synechiae score ([1]; 6 weeks): 100%
- Sites in which synechiae occurred ([1]; at 2 weeks): 20%
- Sites in which synechiae occurred ([1]; at 6 weeks): 0%
- Adhesion score day 42 ([1]; individual site, grade 0-4): 0
- Adhesion score day 14 ([1]; individual site, grade 0-4, listed as P): 0 (16×) and 1 (Intranasal adhesion extends less than 25% to septum) (3×) and 2 (Intranasal adhesion extends 25-50% to septum)
- Two-week synechiae score ([1]; maximum 4 points, mean±SD): 0.3±0.6 points
- Synechiae formation compared to FLOSEAL and untreated control ([1]; sheep, result in words): lowest observed synechiae formation; also recorded: more effective in inhibiting the formation of synechiae; also recorded: statistically significant lower incidence of adhesions; also recorded: significantly reduced synechiae formation
- Number of sites, synechiae Grade 0 ([1]; six weeks post-surgery): 20
- Number of sites, synechiae Grade 1 ([1]; six weeks post-surgery): 0
- Number of sites, synechiae Grade 2 ([1]; six weeks post-surgery): 0
- Number of sites, synechiae Grade 3 ([1]; six weeks post-surgery): 0
- Number of sites, synechiae Grade 4 ([1]; six weeks post-surgery): 0
- Number of sites, synechiae Grade 0 ([1]; two weeks post-surgery): 16
- Number of sites, synechiae Grade 1 ([1]; two weeks post-surgery): 3
- Number of sites, synechiae Grade 2 ([1]; two weeks post-surgery): 1
- Number of sites, synechiae Grade 3 ([1]; two weeks post-surgery): 0
- Number of sites, synechiae Grade 4 ([1]; two weeks post-surgery): 0
- Blood transfusion required ([2]; human, in vivo): None of the patients in this study required a blood transfusion
- Secondary bleed, patients ([2]; more than 24 hours after surgery, n of 94): 3
- Secondary bleed, rate ([2]; more than 24 hours after surgery, of 94 patients): 3.2%
- Intervention required for bleeding, patients ([2]; n of 94): 4
- Intervention required, primary bleed, patients ([2]; n of 94): 3
- Intervention required, secondary bleed, patients ([2]; n of 94): 1
- Bleed (postoperative), patients ([2]; n of 94 patients): 6
- Hemostatic effectiveness, patients ([2]; no bleeding or no intervention required, n of 94): 90
- Hemostatic effectiveness, rate ([2]; no bleeding or no intervention required, of 94 patients): 95.7%
- Type of intervention: Cautery + Surgiflo, patients ([2]; of 4 interventions): 1
- Type of intervention: Cautery + additional PuraSinus, patients ([2]; of 4 interventions): 1
- Type of intervention: Cautery alone, patients ([2]; of 4 interventions): 1
- Type of intervention: Packing, patients ([2]; of 4 interventions): 1
- Bleeding patients on anticoagulation/antiplatelets post-op ([2]; of 6 bleeds): 1
- Bleeding patients with suspected or confirmed coagulopathy ([2]; of 6 bleeds): 2
- Patients with postoperative bleeding: Complete FESS ([2]; of 6 bleeds): 1
- Patients with postoperative bleeding: Female ([2]; of 6 bleeds): 5
- Patients with postoperative bleeding: Limited FESS ([2]; of 6 bleeds): 5
- Patients with postoperative bleeding: Male ([2]; of 6 bleeds): 1
- Bleed (postoperative), rate ([2]; of 94 patients): 6.4%
- Intervention required for bleeding, rate ([2]; of 94 patients): 4.3% and 4.2%
- Intervention required, primary bleed, rate ([2]; of 94 patients): 3.2%
- Intervention required, secondary bleed, rate ([2]; of 94 patients): 1.1%
- Re-bleeds in patients with primary or secondary bleeds ([2]; result in words): no re-bleeds recorded
- Hemostasis in the absence of other hemostatic agents and devices ([2]; result in words, most patients): effective hemostasis
- Primary bleed, patients ([2]; within 24 hours of surgery, n of 94): 3
- Primary bleed, rate ([2]; within 24 hours of surgery, of 94 patients): 3.2%
- Increase in storage modulus G′ after DMEM treatment relative to before [3]: 43.5 fold
- Effect of gamma-irradiation sterilization [4]: enhanced the rheological properties
- Successful hemostasis rates [5]: 72.6-100%
